Data from patent publication US10975037B2 (priority 2018, dated 2021).
Like-named read-outs stand apart in the source and are kept apart here.

Experiments:
[1] = biological target: human RORγt ligand binding domain (RORγt LBD) (Homo sapiens (Human), UniProt P51449); assay: RORγt ThermoFluor® assay (thermal shift binding); settings: ThermoFluor® Assay, Kd
Description: This approach is applicable to a wide variety of systems, and rigorous in theoretical interpretation through quantitation of equilibrium binding constants (KD).
The shift in the melting point described as a ΔTm is proportional to the concentration and affinity of the ligand.
RORγt ThermoFluor® Assay Construct
Reference wells contained RORγt without compounds, and the assay conditions were as follows: • 0.065 mg/mL RORγt • 60 μM 1,8-ANS • 100 mM Hepes, pH 7.0 • 10 mM NaCl • 2.5 mM GSH • 0.002% Tween-20
Project compounds were arranged in a pre-dosed mother plate (Greiner Bio-one) wherein compounds are serially diluted in 100% DMSO by 1:2 from a high concentration of 10 mM over 12 columns within a series (column 12 is a reference well containing DMSO, no compound). The compounds were robotically dispensed directly into assay plates (1×=46 nL) using a Hummingbird capillary liquid handling instrument (Digilab). Following compound dispense, protein and dye in buffer was added to achieve the final assay volume of 3 μL, followed by 1 μL of silicone oil.

full-length human RORγt = full-length human RORγt (Homo sapiens (Human), UniProt P51449); assay: RORγt (full-length human) reporter assay, conditions A or B, HEK293T cells; assay type: cell-based; settings: for inhibition at 2 µM: 2 μM compound concentration; for IC50: RORγt (FL) Reporter Assay A or B, IC50, HEK293T cells; for inhibition at 3 µM: 3 μM compound concentration (footnote *); for inhibition at 1 µM: 1 μM compound concentration (footnote ***)
How it was run: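 After 16–20 h, dual firefly/Renilla luciferase luminescence was read. Firefly signal was normalized to DMSO and saturating reference compound, then to Renilla, and fitted for IC50; % inhibition is versus DMSO.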

[2] = HEK-293T, read-out: RORγt (FL) Reporter Assay A or B, % inhibition
[3] = HEK-293T, 0.33 μM compound concentration (footnote *****), read-out: RORγt (FL) Reporter Assay A or B, % inhibition
[4] = HEK-293T, 0.11 μM compound concentration (footnote ********), read-out: RORγt (FL) Reporter Assay A or B, % inhibition

full-length human RORγt, sequence (P51449 other isoform, or with tags, fused parts or gaps): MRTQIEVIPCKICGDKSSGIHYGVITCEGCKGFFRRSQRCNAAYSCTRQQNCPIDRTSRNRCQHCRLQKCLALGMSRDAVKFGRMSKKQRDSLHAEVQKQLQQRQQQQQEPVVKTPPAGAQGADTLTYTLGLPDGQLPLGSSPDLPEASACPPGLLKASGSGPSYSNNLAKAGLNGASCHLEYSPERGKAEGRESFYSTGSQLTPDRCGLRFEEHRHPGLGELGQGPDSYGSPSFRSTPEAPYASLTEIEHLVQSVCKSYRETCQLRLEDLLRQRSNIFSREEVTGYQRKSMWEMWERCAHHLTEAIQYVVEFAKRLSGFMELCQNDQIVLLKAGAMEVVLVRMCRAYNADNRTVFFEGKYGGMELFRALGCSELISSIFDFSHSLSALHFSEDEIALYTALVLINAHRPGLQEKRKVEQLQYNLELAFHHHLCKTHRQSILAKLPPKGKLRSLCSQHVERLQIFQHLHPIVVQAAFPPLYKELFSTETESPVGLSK
human RORγt ligand binding domain (RORγt LBD), sequence (P51449 other isoform, or with tags, fused parts or gaps): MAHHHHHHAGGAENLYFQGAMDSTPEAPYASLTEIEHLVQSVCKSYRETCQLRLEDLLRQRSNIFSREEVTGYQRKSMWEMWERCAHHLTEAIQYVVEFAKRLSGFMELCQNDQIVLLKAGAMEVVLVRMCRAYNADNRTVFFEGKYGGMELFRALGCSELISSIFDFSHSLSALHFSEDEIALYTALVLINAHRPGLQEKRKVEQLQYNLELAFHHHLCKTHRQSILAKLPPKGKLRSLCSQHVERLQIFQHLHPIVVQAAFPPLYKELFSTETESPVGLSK

SMILES	Kd [1]	inhibition at 2 µM (full-length human RORγt; [2])	IC50 (full-length human RORγt)	inhibition at 0.67 µM (full-length human RORγt; HEK-293T, 0.67 μM compound concentration (footnote ****), read-out: RORγt (FL) Reporter Assay A or B, % inhibition)	inhibition at […] (full-length human RORγt; [3])	inhibition at […] (full-length human RORγt; [4])	inhibition at 3 µM (full-length human RORγt; [2])	inhibition at 1 µM (full-length human RORγt; [2])
CCn1nc(C(=O)NC[C@]2(O)CC[C@H](S(C)(=O)=O)C[C@H]2O)c(Cl)c1-c1ccc(CC(C)(C)C(F)(F)F)cc1OC(F)F (single isomer, unassigned) [Example 48, 4-Chloro-5-(2-(difluoromethoxy)-4-(3,3,3-trifluoro-2,2-dimethylpropyl)phenyl)-N-(((1R*,2R*4S*)-1,2-dihydroxy-4-(methylsulfonyl)cyclohexyl)methyl)-1-ethyl-1H-pyrazole-3-carboxamide]	31 nM	95%	61 nM	–	–	–	–	–
CCn1nc(C(=O)NC[C@@]2(O)CC[C@@H](S(C)(=O)=O)C[C@@H]2O)c(Cl)c1-c1ccc(CC(C)(C)C(F)(F)F)cc1OC(F)F (single isomer, unassigned) [Example 49, 4-Chloro-5-(2-(difluoromethoxy)-4-(3,3,3-trifluoro-2,2-dimethylpropyl)phenyl)-N-(((1S*,2S*,4R*)-1,2-dihydroxy-4-(methylsulfonyl)cyclohexyl)methyl)-1-ethyl-1H-pyrazole-3-carboxamide]	26 nM	96%	61 nM	–	–	–	–	–
CCn1nc(C(=O)NC[C@]2(O)CC[C@@H](S(N)(=O)=O)CC2)c(Cl)c1-c1ccc(C[C@H](C)C(F)(F)F)cc1OC(F)F (single isomer, unassigned) [Example 60, 4-Chloro-5-(2-(difluoromethoxy)-4-((S*)-3,3,3-trifluoro-2-methylpropyl)phenyl)-1-ethyl-N-(((1s,4R)-1-hydroxy-4-sulfamoylcyclohexyl)methyl)-1H-pyrazole-3-carboxamide]	1.9 nM	–	38 nM	–	–	–	114%	–
CCn1nc(C(=O)NC[C@]2(O)CC[C@@H](S(N)(=O)=O)CC2)c(C)c1-c1ccc(C[C@H](C)C(F)(F)F)cc1OC(F)F (single isomer, unassigned) [Example 61, 5-(2-(difluoromethoxy)-4-((S*)-3,3,3-trifluoro-2-methylpropyl)phenyl)-1-ethyl-N-(((1s,4R)-1-hydroxy-4-sulfamoylcyclohexyl)methyl)-4-methyl-1H-pyrazole-3-carboxamide]	6.5 nM	–	68 nM	–	–	–	–	130%
CCn1nc(C(=O)NC[C@]2(O)CC[C@@H](S(C)(=O)=O)CC2)c(Cl)c1-c1ccc([C@@](C)(O)CC(F)(F)F)cc1OC(F)F (single isomer, unassigned) [Example 99, 4-Chloro-5-(2-(difluoromethoxy)-4-((S*)-4,4,4-trifluoro-2-hydroxybutan-2-yl)phenyl)-1-ethyl-N-(((1s,4R)-1-hydroxy-4-(methylsulfonyl)cyclohexyl)methyl)-1H-pyrazole-3-carboxamide]	230 nM	–	2600 nM	–	–	–	-21%	–
CCn1nc(C(=O)NC[C@]2(O)CC[C@@H](S(C)(=O)=O)CC2)c(Cl)c1-c1ccc([C@](C)(O)CC(F)(F)F)cc1OC(F)F (single isomer, unassigned) [Example 100, 4-Chloro-5-(2-(difluoromethoxy)-4-((R*)-4,4,4-trifluoro-2-hydroxybutan-2-yl)phenyl)-1-ethyl-N-(((1s,4S)-1-hydroxy-4-(methylsulfonyl)cyclohexyl)methyl)-1H-pyrazole-3-carboxamide]	69 nM	–	220 nM	–	–	–	49%	–
CCn1nc(C(=O)NC[C@]2(O)CC[C@@H](S(C)(=O)=O)CC2)c(Cl)c1-c1ccc(C2(O)CCC(C(F)(F)F)CC2)cc1OC(F)F (single isomer, unassigned) [Example 112, 4-Chloro-5-(2-(difluoromethoxy)-4-((1s*,4s*)-1-hydroxy-4-(trifluoromethyl)cyclohexyl)phenyl)-1-ethyl-N-(((1s,4s)-1-hydroxy-4-(methylsulfonyl)cyclohexyl)methyl)-1H-pyrazole-3-carboxamide]	3000 nM	–	> 1000 nM	–	–	–	–	44%
CCn1nc(C(=O)NC[C@]2(O)CC[C@@H](S(C)(=O)=O)CC2)c(Cl)c1-c1ccc(C2(O)CCC(C(F)(F)F)CC2)cc1OC(F)F (single isomer, unassigned) [Example 113, 4-Chloro-5-(2-(difluoromethoxy)-4-((1r*,4r*)-1-hydroxy-4-(trifluoromethyl)cyclohexyl)phenyl)-1-ethyl-N-(((1s,4s)-1-hydroxy-4-(methylsulfonyl)cyclohexyl)methyl)-1H-pyrazole-3-carboxamide]	120 nM	–	61 nM	–	–	–	88%	–
CCn1nc(C(=O)NC[C@H]2CC[C@H](S(C)(=O)=O)CC2)c(Cl)c1-c1ccc(C2(O)CCC(C(F)(F)F)CC2)cc1OC(F)F (single isomer, unassigned) [Example 114, 4-Chloro-5-(2-(difluoromethoxy)-4-((1s*,4s*)-1-hydroxy-4-(trifluoromethyl)cyclohexyl)phenyl)-1-ethyl-N-(((1r,4r)-4-(methylsulfonyl)cyclohexyl)methyl)-1H-pyrazole-3-carboxamide]	980 nM	–	410 nM	–	–	–	–	82%

Stronger by Kd [1], values ahead:

Kd [1]	inhibition at 2 µM (full-length human RORγt; [2])	IC50 (full-length human RORγt)	inhibition at 0.67 µM (full-length human RORγt; HEK-293T, 0.67 μM compound concentration (footnote ****), read-out: RORγt (FL) Reporter Assay A or B, % inhibition)	inhibition at […] (full-length human RORγt; [3])	inhibition at […] (full-length human RORγt; [4])	inhibition at 3 µM (full-length human RORγt; [2])	inhibition at 1 µM (full-length human RORγt; [2])	SMILES
1.2 nM	–	19 nM	–	93%	–	–	–	CCn1nc(C(=O)NC[C@H]2CC[C@H](S(N)(=O)=O)CC2)c(C)c1-c1ccc(C[C@H](C)C(F)(F)F)cc1OC(F)F (single isomer, unassigned) [Example 59, 5-(2-(difluoromethoxy)-4-((S*)-3,3,3-trifluoro-2-methylpropyl)phenyl)-1-ethyl-4-methyl-N-(((1r,4S)-4-sulfamoylcyclohexyl)methyl)-1H-pyrazole-3-carboxamide]
1 nM	–	8.7 nM	–	–	94%	–	–	CCn1nc(C(=O)NC[C@]2(O)CC[C@@H](S(C)(=O)=O)CC2)c(Cl)c1-c1ccc(C[C@H](C)C(F)(F)F)cc1OC(F)F (single isomer, unassigned) [Example 56, 4-Chloro-5-(2-(difluoromethoxy)-4-((S*)-3,3,3-trifluoro-2-methylpropyl)phenyl)-1-ethyl-N-(((1s,4R)-1-hydroxy-4-(methylsulfonyl)cyclohexyl)methyl)-1H-pyrazole-3-carboxamide]
0.69 nM	–	9.8 nM	–	102%	–	–	–	CCn1nc(C(=O)NC[C@H]2CC[C@H](S(N)(=O)=O)CC2)c(Cl)c1-c1ccc(C[C@H](C)C(F)(F)F)cc1OC(F)F (single isomer, unassigned) [Example 54, 4-Chloro-5-(2-(difluoromethoxy)-4-((S*)-3,3,3-trifluoro-2-methylpropyl)phenyl)-1-ethyl-N-(((1r,4S)-4-sulfamoylcyclohexyl)methyl)-1H-pyrazole-3-carboxamide]
0.42 nM	101%	9 nM	–	–	–	–	–	CCCn1nc(C(=O)NC[C@]2(O)CC[C@@H](S(C)(=O)=O)CC2)c(Cl)c1-c1ccc(C[C@@H](C)C(F)(F)F)cc1OC (single isomer, unassigned) [Example 42, 4-Chloro-N-(((1s,4S)-1-hydroxy-4-(methylsulfonyl)cyclohexyl)methyl)-5-(2-methoxy-4-((R*)-3,3,3-trifluoro-2-methylpropyl)phenyl)-1-propyl-1H-pyrazole-3-carboxamide]
0.37 nM	103%	1.7 nM	–	–	–	–	–	CCn1nc(C(=O)NC[C@@]2(O)CC[C@H](S(C)(=O)=O)C[C@@H]2O)c(Cl)c1-c1ccc(CC(C)(C)C(F)(F)F)cc1OC(F)F (single isomer, unassigned) [Example 47, 4-Chloro-5-(2-(difluoromethoxy)-4-(3,3,3-trifluoro-2,2-dimethylpropyl)phenyl)-N-(((1S*,2S*,4S*)-1,2-dihydroxy-4-(methylsulfonyl)cyclohexyl)methyl)-1-ethyl-1H-pyrazole-3-carboxamide]
0.35 nM	–	10 nM	–	–	94%	–	–	CCn1nc(C(=O)NC[C@H]2CC[C@H](S(C)(=O)=O)CC2)c(Cl)c1-c1ccc(C[C@H](C)C(F)(F)F)cc1OC(F)F (single isomer, unassigned) [Example 55, 4-Chloro-5-(2-(difluoromethoxy)-4-((S*)-3,3,3-trifluoro-2-methylpropyl)phenyl)-1-ethyl-N-(((1r,4S)-4-(methylsulfonyl)cyclohexyl)methyl)-1H-pyrazole-3-carboxamide]
0.21 nM	–	7 nM	99%	–	–	–	–	CCCn1nc(C(=O)NC[C@H]2CC[C@H](S(C)(=O)=O)CC2)c(Cl)c1-c1ccc(C[C@@H](C)C(F)(F)F)cc1OC (single isomer, unassigned) [Example 43, 4-Chloro-5-(2-methoxy-4-((R*)-3,3,3-trifluoro-2-methylpropyl)phenyl)-N-(((1r,4R)-4-(methylsulfonyl)cyclohexyl)methyl)-1-propyl-1H-pyrazole-3-carboxamide]
